Results reported in publication PMC8070256, “Feasibility of Developing Radiotracers for MDM2: Synthesis and Preliminary Evaluation of an ^18F-Labeled Analogue of the MDM2 Inhibitor SP-141” (Pharmaceuticals, 2021).

Columns and labels:
[1] = system: HepG2 cells; assay: Cell uptake of [^18F]1 in HepG2 cells after 21 h pretreatment; format: cell-based, human; settings: HepG2 cells
Procedure: (§1) The ability of [^18F]1 to bind to MDM2 expressing human tumor cells was assessed using two wild-type p53 cell lines, MCF-7 breast adenocarcinoma, and HepG2 hepatocellular carcinoma. These cell lines have significant MDM2 expression levels and have been utilized previously for assessing potential MDM2 inhibitors, including SP-141 [12, 24, 25]. […] Thus, to examine the uptake and specificity of [^18F]1 by MDM2 expressing tumor cell lines, MCF-7 and HepG2 cells were treated with 0, 1, 5, or 10 µM SP-141 for 21 h, and then assessed for [^18F]1 uptake for 1 h.
Cell uptake studies of [^18F]1 were conducted using MCF-7 and HepG2 cell lines. […] Next, the incubation medium was removed, cells were rinsed with cold PBS (3 × 0.5 mL) and lysed using Cell Culture Lysis Reagent (0.25 mL, Promega Corporation, Madison, WI, USA) followed by a rinse with PBS (0.125 mL/well). For each well, the supernatant, PBS washes, and the cell lysate were measured for radioactivity in an automated gamma counter (Wallac Wizard™, Perkin Elmer, Waltham, MA, USA). Subsequently, cell lysates were analyzed for protein concentration using the Bradford assay (Bio-Rad, Hercules, CA, USA). Cell uptake for each well was normalized to its protein content and expressed as % uptake/mg protein. Results are presented as mean ± SD for three wells.

[2] = system: MCF-7 cells; assay: Cell uptake of [^18F]1 in MCF-7 cells after 21 h pretreatment; format: cell-based, human; settings: MCF-7 cells
Procedure: as §1
Cell uptake studies of [^18F]1 were conducted using MCF-7 and HepG2 cell lines. Briefly, cells plated in 24-well plates (200,000/well) were treated with varying concentrations of SP-141 (1, 5, or 10 µM) or vehicle for 21 h and incubated with a fresh medium containing [^18F]1 (~18.5 kBq in 0.5 mL medium) for 1 h. Next, the incubation medium was removed, cells were rinsed with cold PBS (3 × 0.5 mL) and lysed using Cell Culture Lysis Reagent (0.25 mL, Promega Corporation, Madison, WI, USA) followed by a rinse with PBS (0.125 mL/well). For each well, the supernatant, PBS washes, and the cell lysate were measured for radioactivity in an automated gamma counter (Wallac Wizard™, Perkin Elmer, Waltham, MA, USA). Subsequently, cell lysates were analyzed for protein concentration using the Bradford assay (Bio-Rad, Hercules, CA, USA). Cell uptake for each well was normalized to its protein content and expressed as % uptake/mg protein. Results are presented as mean ± SD for three wells.

[3] = system: HepG2 cells; assay: [^18F]1 uptake with or without co-incubated 100 µM SP-141, HepG2; format: cell-based, human; settings: 100 µM SP-141 co-incubation, 15 min
Procedure: (§2) Because MDM2 is a transcriptional target of p53, stabilization of p53 levels after MDM2 inhibition with SP-141 is expected to cause a temporary increase in MDM2 protein expression via the autoregulatory loop. Thus, we hypothesized that treatment of tumor cells with high concentrations of SP-141 for shorter periods (e.g., <4 h) might induce MDM2 expression as a consequence of p53 activation, whereas low concentrations of SP-141 (≤1 µM) and longer incubation times (≥20 h) appear to promote MDM2 degradation in vitro. To investigate this, MCF-7 and HepG2 cells were incubated with or without 100 µM SP-141 for 15–120 min, and uptake was measured as a percentage input dose for each time point. Hep3B, a p53 null cell line, was used as a negative control. […]
(§3) For these studies, MCF-7 (WT-p53), HepG2 (WT-p53), and Hep3B (p53 null) cells were plated in 24-well plates (20,000/well) and incubated with [^18F]1 (~18.5 kBq in 0.5 mL) with or without 100 µM SP-141 for 15–120 min under standard cell culture conditions. […] The radioactivity in supernatants, wash fractions, and cell lysates was counted for each well using the gamma counter (Wallac Wizard). Cell uptake was calculated as the percentage of the input dose for the two treatment conditions (with/without 100 µM SP-141).

[4] = system: Hep3B cells; assay: [^18F]1 uptake with or without co-incubated 100 µM SP-141, Hep3B; format: cell-based, human; settings: Hep3B (p53 null) cells, 100 µM SP-141 co-incubation, 15-120 min
Procedure: as §2, §3

[5] = system: MCF-7 xenograft; parameters: method as in PMID 25271708, PMID 31832522, PMID 29354330; settings: 40 mg/kg i.p., 5 days a week, cited from earlier work
[6] = target: MDM2 protein; parameters: method as in PMID 25271708; settings: read-out: Binding affinity (Ki); cited from earlier work
[7] = system: MCF-7 cells; assay: [^18F]1 uptake with or without co-incubated 100 µM SP-141, MCF-7; format: cell-based, human; settings: 100 µM SP-141 co-incubation, 15 min
Procedure: as §2, §3

[8] = target: MDM2; settings: read-out: Binding affinity determined by SPR analysis; cited from earlier work
[9] = system: HepG2 cells; parameters: method as in PMID 25271708, PMID 31832522; settings: 0.5–1.0 µM for 24 h; cited from earlier work
[10] = system: HepG2 xenograft; parameters: method as in PMID 25271708, PMID 31832522, PMID 29354330; settings: 40 mg/kg i.p., 5 days a week, cited from earlier work
[11] = system: MCF-7 cells; parameters: method as in PMID 25271708, PMID 31832522; settings: 0.5–1.0 µM for 24 h; cited from earlier work
[12] = system: MDM2 gene expression; settings: AML patients, peripheral blasts, after 10 days of treatment; cited from earlier work

COc1ccc(C2=N[C@@H](c3ccc(Cl)cc3)[C@@H](c3ccc(Cl)cc3)N2C(=O)N2CCNC(=O)C2)c(OC(C)C)c1 [Nutlin-3, reference compound]
Change of [^18F]1 uptake after pretreatment ([1]; 10 µM Nutlin-3, 21 h): significant increases | Inhibitory effect of pretreatment on [^18F]1 uptake ([1]; Nutlin-3 1-10 µM for 21 h): did not show any inhibitory effects | Change of [^18F]1 uptake after pretreatment ([2]; 1 and 5 µM Nutlin-3, 21 h): significant increases | Inhibitory effect of pretreatment on [^18F]1 uptake ([2]; Nutlin-3 1-10 µM for 21 h): did not show any inhibitory effects

COc1ccc2[nH]c3c(-c4cccc5ccccc45)nccc3c2c1 [SP-141, 6-Methoxy-1-(naphthalen-1-yl)-9H-pyrido[3,4-b]indole]
Increase of [^18F]1 uptake compared to cells incubated with only [^18F]1 [3]: 1.4 fold | Effect of SP-141 on [^18F]1 uptake [4]: no effect | Tumor growth ([5]; after 42 days): inhibited tumor growth significantly | MDM2 levels in tumors [5]: decreased MDM2 levels in tumors | Ki [6]: 28 ± 6 nM | Effect of SP-141 pretreatment on [^18F]1 uptake ([1]; 10 µM SP-141 for 21 h): no noticeable effects | Increase of [^18F]1 uptake compared to cells incubated with only [^18F]1 [7]: 1.2 fold | Kd [8]: 43 nM | Cellular MDM2 levels [9]: decreases cellular MDM2 levels | Tumor growth ([10]; after 20 days): inhibited tumor growth significantly | MDM2 levels in tumors [10]: decreased MDM2 levels in tumors | Decrease of [^18F]1 uptake compared to vehicle-treated cells ([2]; 1 µM SP-141 for 21 h): 76% | Cellular MDM2 levels [11]: decreases cellular MDM2 levels

CCOc1cc(C(C)(C)C)ccc1C1=N[C@@](C)(c2ccc(Cl)cc2)[C@@](C)(c2ccc(Cl)cc2)N1C(=O)N1CCN(CCCS(C)(=O)=O)CC1 [RG7112]
Increase in median MDM2 gene expression levels [12]: 2.8 fold
